Results on 14 compounds are retold here after PubChem BioAssay (NCI).

Among the test systems are HOP-62 NSCLC; HOP-92 NSCLC; HS 578T breast; M14 melanoma; MALME-3M melanoma; MDA-N; NCI-H460 lung; OVCAR-4 ovarian; SF-295 CNS; SR leukemia.
Experiment in all cases: DTP human tumour cell line panel, 48 h

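Five compound concentrations were applied to cells in 96-well plates for 48 hours; endpoints were derived by simple linear interpolation of the resulting dose-response curve. Here, GI50 denotes the concentration required for 50% inhibition of growth. TGI marks complete inhibition of growth.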 Where a SMILES comes first, the peptide text is derived from it. [ ]: non-standard residue; d: D form. The star is where a group is joined. Bn2Val = CC(C)[C@@H](C(=O)*)N(Cc1ccccc1)Cc1ccccc1; NH(4-Cl-benzyl) = Clc1ccc(CN*)cc1; NMeV = CN[C@H](C(=O)O)C(C)C; dNMeA = CN[C@H](C)C(=O)O Some results are limits rather than exact numbers.

On to `O=C(c1cccs1)N1CCN(C(=O)c2cccs2)C1=S`, for which the total growth inhibition concentration (TGI) in the assay on HOP-62 NSCLC is 18.8 µM; in the assay on HOP-92 NSCLC it was 20.7 µM; with HS 578T breast, > 100 µM; in the assay on M14 melanoma, 19 µM; in the assay on MALME-3M melanoma, 28.7 µM; in the assay on MDA-N, 14.8 µM. In addition, the TGI in the assay on NCI-H460 lung is 19.1 µM; with OVCAR-4 ovarian it was 32.3 µM; with SF-295 CNS, 30.5 µM; in the assay on SR leukemia, > 100 µM.

As to `O=C1c2c(O)cccc2-c2nn(CCNCCO)c3ccc(NCCNCCO)c1c23`, the TGI in the assay with HOP-62 NSCLC worked out at 0.63 µM; in the assay on HOP-92 NSCLC, 0.609 µM; in the assay with HS 578T breast it was 0.535 µM; in the assay on M14 melanoma, 2.02 µM; with MALME-3M melanoma, 1.12 µM; in the assay on MDA-N it was 1.94 µM. Moreover, the TGI with NCI-H460 lung is 0.934 µM; with OVCAR-4 ovarian it was 2.97 µM; in the assay on SF-295 CNS, 1.39 µM; in the assay on SR leukemia it was 3 µM.

Turning to `CCN(CC)C(=S)SS(=O)(=O)c1cccc(N)c1`, the TGI in the assay with HOP-62 NSCLC, in the assay with HOP-92 NSCLC, with HS 578T breast, in the assay with M14 melanoma, in the assay on MALME-3M melanoma and in the assay with MDA-N was > 100 µM throughout. The TGI with NCI-H460 lung, with OVCAR-4 ovarian, in the assay with SF-295 CNS and in the assay on SR leukemia was > 100 µM throughout.

As for `CC(C)[C@H](NC(=O)[C@H](C(C)C)N(Cc1ccccc1)Cc1ccccc1)C(=O)N(C)[C@H](C(=O)N1CCC[C@H]1C(=O)N(C)[C@H](C)C(=O)NCc1ccc(Cl)cc1)C(C)C` (Bn2Val-V[NMeV]P[dNMeA]-{NH(4-Cl-benzyl)}), the TGI in the assay on HOP-62 NSCLC is 29.5 µM; in the assay on HOP-92 NSCLC, 17.9 µM; with HS 578T breast, 4.04 µM; in the assay with M14 melanoma it was 30.1 µM; with MALME-3M melanoma it was > 29.7 µM; in the assay with MDA-N, 30.9 µM. In addition, the TGI is > 100 µM in the assay on NCI-H460 lung, > 100 µM in the assay on OVCAR-4 ovarian, 11.1 µM in the assay on SF-295 CNS and > 100 µM in the assay on SR leukemia.

Consider `Cc1cc(C)c2c(c1)C(=O)/C(=C/c1ccccc1C(=O)O)C2`, for which the TGI in the assay with HOP-62 NSCLC, with HOP-92 NSCLC, with HS 578T breast, in the assay on M14 melanoma, in the assay with MALME-3M melanoma and with MDA-N was > 100 µM in each case. The total growth inhibition concentration (TGI) in the assay on NCI-H460 lung, with OVCAR-4 ovarian, in the assay with SF-295 CNS and in the assay with SR leukemia was > 100 µM each time.

As to `COc1cc(C2c3cc4c(cc3C3OC[C@@H]2C3CO)OCO4)cc(OC)c1OC` (stereo partly specified), the GI50 in the assay with HOP-62 NSCLC is 47.4 µM. Also, the TGI in the assay with HOP-62 NSCLC is > 100 µM; in the assay with HOP-92 NSCLC, > 100 µM; in the assay with HS 578T breast, 95.7 µM; in the assay with M14 melanoma, > 100 µM; in the assay with MALME-3M melanoma, > 100 µM; in the assay with MDA-N it was 36.1 µM. The TGI in the assay with NCI-H460 lung is 47.8 µM; in the assay with OVCAR-4 ovarian, > 100 µM; in the assay on SF-295 CNS, > 100 µM; with SR leukemia, > 100 µM.

With `CC(C)(C)n1c(=O)[nH]c(=O)n1C(C)(C)C`, the TGI in the assay on HOP-62 NSCLC, in the assay with HOP-92 NSCLC, in the assay with HS 578T breast, in the assay with M14 melanoma, in the assay on MALME-3M melanoma and in the assay on MDA-N was > 100 µM throughout. Besides, the TGI in the assay on NCI-H460 lung, in the assay with OVCAR-4 ovarian, in the assay on SF-295 CNS and in the assay on SR leukemia was > 100 µM each time.

Consider `N#Cc1cc2c(n(C3OC(CO)C(O)C(O)C3O)c1=S)CCCCCC2` (stereo unspecified), for which the total growth inhibition concentration (TGI) in the assay on HOP-62 NSCLC, in the assay on HOP-92 NSCLC, in the assay on HS 578T breast, with M14 melanoma, in the assay on MALME-3M melanoma and in the assay with MDA-N was > 100 µM throughout. Further, the TGI with NCI-H460 lung, in the assay on OVCAR-4 ovarian, with SF-295 CNS and with SR leukemia was > 100 µM in each case.

Regarding `COc1cccc(N=N/C(=N\NC(=O)c2ccc(C)cc2)c2ccc(N(CCC#N)CCC#N)cc2C)c1`, the TGI in the assay with HOP-62 NSCLC, in the assay on HOP-92 NSCLC, with HS 578T breast, with M14 melanoma, in the assay with MALME-3M melanoma and in the assay with MDA-N was > 100 µM in each case. Also, the concentration for total growth inhibition (TGI) in the assay with NCI-H460 lung, in the assay with OVCAR-4 ovarian, in the assay on SF-295 CNS and with SR leukemia was > 100 µM each time.

In the case of `C=CCOn1c(C=C)nc2ccc(C)cc21`, the TGI in the assay with HOP-62 NSCLC was 78.3 µM; with HOP-92 NSCLC it was > 100 µM; with HS 578T breast, > 100 µM; in the assay with M14 melanoma it was 32.6 µM; in the assay on MALME-3M melanoma, 38.9 µM; in the assay on MDA-N, 35.7 µM. In addition, the TGI is 32.8 µM in the assay on NCI-H460 lung, > 100 µM in the assay with OVCAR-4 ovarian, 82.6 µM in the assay on SF-295 CNS and 33.4 µM in the assay on SR leukemia.

With `C/C(=N\NC(=S)N(C)C)c1cccnn1`, the concentration for total growth inhibition (TGI) is > 100 µM in the assay with HOP-62 NSCLC; > 100 µM in the assay on HS 578T breast; > 100 µM with M14 melanoma; > 70.5 µM in the assay on MALME-3M melanoma; > 74.2 µM with MDA-N; > 100 µM in the assay on OVCAR-4 ovarian. Moreover, the total growth inhibition concentration (TGI) is > 100 µM in the assay on SF-295 CNS and > 20.3 µM in the assay on SR leukemia.

As for `C=CCC1C(O[Si](C)(C)C(C)(C)C)C(CO[Si](C)(C)C(C)(C)C)OC1n1ccc(=O)[nH]c1=O` (stereo unspecified), the TGI with HOP-92 NSCLC was determined as 2.5 µM; in the assay on M14 melanoma it was 2.96 µM; in the assay with MDA-N it was 2.89 µM; with NCI-H460 lung, 2.93 µM; in the assay with SF-295 CNS, 3.59 µM; in the assay with SR leukemia, 18.4 µM.

In the case of `CN1C(=O)C(O)C[C@@H]1c1ccccc1` (stereo partly specified), the TGI in the assay on HOP-62 NSCLC, in the assay with HOP-92 NSCLC, in the assay with HS 578T breast, in the assay on M14 melanoma, in the assay on MALME-3M melanoma and in the assay on MDA-N was > 100 µM in each case. In addition, the TGI in the assay with OVCAR-4 ovarian, with SF-295 CNS and with SR leukemia was > 100 µM throughout.

Take `CCCSc1ccc2[nH]c(N3C(=O)/C(=C/c4ccccc4)N=C3c3ccccc3)cc2c1`: the TGI in the assay on HOP-92 NSCLC was > 50 µM; in the assay on HS 578T breast it was > 50 µM; in the assay with M14 melanoma it was > 50 µM; in the assay with MALME-3M melanoma it was > 50 µM; in the assay on MDA-N it was 20.1 µM; in the assay with OVCAR-4 ovarian it was > 50 µM. Further, the TGI in the assay on SR leukemia is > 50 µM.
